Key:
[1] = Inhibition of recombinant full-length Neisseria gonorrhoeae N-terminal His6-tagged GCYH1B expressed in Escherichia coli BL21 (DE3) using GTP as substrate incubated for 50 to 60 mins by fluorescence based assay
[2] = Inhibition of Thermus thermophilus HB8 GCYH1A expressed in Escherichia coli BL21 (DE3) using GTP as substrate incubated for 60 to 180 mins by spectrofluorimetric analysis
[3] = Inhibition of Neisseria gonorrhoeae GCYH1B
[4] = Inhibition of full-length human GCYH1A expressed in Escherichia coli using GTP as substrate incubated for 30 mins by fluorescence based assay

Nc1nc2c([nH]c(=O)n2[C@@H]2O[C@H](CO[P@@](=O)(O)O[P@@](=O)(O)OP(=O)(O)O)[C@@H](O)[C@H]2O)c(=O)[nH]1 gave a Ki [1] of 0.15 µM and a Ki [2] of 0.0054 µM.
Work on Nc1nc(OC[C@@H](O)CO)c2[nH]c(=O)n([C@@H]3O[C@H](CO)[C@@H](O)[C@H]3O)c2n1 yielded an IC50 [3] of 164 µM and an IC50 [4] of 372 µM.
In the case of Nc1nc(OC[C@H](O)CO)c2[nH]c(=O)n([C@@H]3O[C@H](CO)[C@@H](O)[C@H]3O)c2n1, the IC50 [3] is reported as 134 µM and the IC50 [4] is reported as 409 µM.
COc1nc2c(=O)[nH]c(N)nc2n1[C@@H]1O[C@H](CO)[C@@H](O)[C@H]1O showed an IC50 [3] of 372 µM.
Nc1nc(OCCO)c2[nH]c(=O)n([C@@H]3O[C@H](CO)[C@@H](O)[C@H]3O)c2n1 gave an IC50 [3] of 413 µM and an IC50 [4] of 221 µM.
